Source: article PMC8914530 (Data in Brief, 2022)
Where two headings read alike, the source gives them in different places.

How the values were obtained:
[1] = target: CYP3A4 (Homo sapiens, UniProt P08684); test: CYP3A4 Vivid CYP450 Red fluorescent inhibition assay; type: biochemical; conditions: for CYP3A4 Hillslope: variable slope sigmoidal fit, GraphPad Prism 7.0
[2] = target: T1, CYP2B6 (Homo sapiens, UniProt P20813); test: CYP2B6 Vivid CYP450 Blue fluorescent inhibition assay; type: biochemical; conditions: for CYP2B6 Hillslope: variable slope sigmoidal fit, GraphPad Prism 7.0; for IC50 Ratio: ratio of the IC50 values from the two CYPs, + indicates greater affinity for CYP2B6, – greater affinity for CYP3A4
T1 sequence (P20813 1-491): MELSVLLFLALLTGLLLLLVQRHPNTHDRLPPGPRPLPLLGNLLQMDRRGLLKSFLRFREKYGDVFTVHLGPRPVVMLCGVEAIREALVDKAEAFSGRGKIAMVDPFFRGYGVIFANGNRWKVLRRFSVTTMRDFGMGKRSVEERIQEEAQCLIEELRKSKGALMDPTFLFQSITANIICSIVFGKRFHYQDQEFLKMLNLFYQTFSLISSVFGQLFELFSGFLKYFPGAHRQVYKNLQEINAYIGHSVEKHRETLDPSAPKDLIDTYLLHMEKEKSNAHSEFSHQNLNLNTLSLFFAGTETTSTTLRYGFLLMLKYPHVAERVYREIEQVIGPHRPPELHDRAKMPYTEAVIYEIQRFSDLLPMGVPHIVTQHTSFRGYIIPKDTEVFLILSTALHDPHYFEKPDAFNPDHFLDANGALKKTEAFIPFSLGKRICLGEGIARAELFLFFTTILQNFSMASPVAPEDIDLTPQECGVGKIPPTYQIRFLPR

Chain of CYP3A4 (P08684 whole entry): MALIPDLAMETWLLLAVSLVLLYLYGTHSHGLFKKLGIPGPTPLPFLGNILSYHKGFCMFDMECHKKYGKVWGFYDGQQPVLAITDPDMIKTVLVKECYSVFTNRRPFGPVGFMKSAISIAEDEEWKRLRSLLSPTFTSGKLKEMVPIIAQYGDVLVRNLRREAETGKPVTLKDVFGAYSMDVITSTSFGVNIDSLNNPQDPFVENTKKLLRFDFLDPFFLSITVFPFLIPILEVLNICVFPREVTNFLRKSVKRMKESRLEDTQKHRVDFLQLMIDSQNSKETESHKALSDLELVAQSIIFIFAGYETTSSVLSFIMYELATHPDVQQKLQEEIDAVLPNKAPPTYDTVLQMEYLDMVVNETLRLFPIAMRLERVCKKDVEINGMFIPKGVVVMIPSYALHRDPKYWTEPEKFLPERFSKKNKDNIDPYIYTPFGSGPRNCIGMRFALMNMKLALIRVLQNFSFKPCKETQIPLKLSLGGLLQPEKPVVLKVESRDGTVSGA

Row | Compound | IC50 [1] [µM] | CYP3A4 Hillslope [1] | IC50 [2] [µM] | CYP2B6 Hillslope [2] | IC50 Ratio [2] | IC50 ([1]; read-out: CYP3A4 IC50, CYP3A4-transfected baculosomes, concentration-response, n = 3–12) [µM]
1 | CCCCC/C=C\C/C=C\C/C=C\C/C=C\CCCC(=O)O [Arachidonic acid] | 13.7 | −4.08 | 1.04 | −0.59 | – | –
2 | CCNc1nc(Cl)nc(NC(C)C)n1 [Atrazine] | – | – | 0.144 | −0.34 | – | –
3 | CC(C)(c1ccc(O)cc1)c1ccc(O)cc1 [Bisphenol A] | – | – | 8.44 | −2.65 | – | –
4 | C[C@H](CCC(=O)O)[C@H]1CC[C@H]2[C@@H]3[C@H](O)C[C@@H]4C[C@H](O)CC[C@]4(C)[C@H]3CC[C@]12C [Chenodeoxycholic acid] | – | – | 49 | −1.32 | – | –
5 | CCOP(=S)(OCC)Oc1nc(Cl)c(Cl)cc1Cl [Chlorpyrifos] | 0.28 | – | 0.0092 | −2.09 | +30.4 | –
6 | CC1(C)C(C=C(Cl)Cl)C1C(=O)OC(C#N)c1cccc(Oc2ccccc2)c1 (stereo not drawn) [Cypermethrin] | – | – | 6040 | −0.79 | – | –
7 | CCOP(=S)(OCC)Oc1cc(C)nc(C(C)C)n1 [Diazinon] | – | −2.52 | 0.0754 | −1.51 | – | –
8 | CC/C=C\C/C=C\C/C=C\C/C=C\C/C=C\C/C=C\CCC(=O)O [Docosahexaenoic acid] | 5.08 | −5.0 | 2.06 | −1.22 | – | –
9 | O=S1OCC2C(CO1)C1(Cl)C(Cl)=C(Cl)C2(Cl)C1(Cl)Cl (stereo not drawn) [Endosulfan] | 0.0046 | −0.261 | 0.003 | −0.66 | – | –
10 | C[C@]12CC[C@@H]3c4ccc(O)cc4CC[C@H]3[C@@H]1CC[C@@H]2O [Estradiol] | 2.78 | −0.903 | 42.2 | −0.33 | – | –
11 | CCCCC/C=C\C/C=C\CCCCCCCC(=O)O [Linoleic acid] | 18.3 | −4.46 | 9.19 | −0.69 | – | –
12 | C[C@H](CCC(=O)O)[C@H]1CC[C@H]2[C@@H]3CC[C@@H]4C[C@H](O)CC[C@]4(C)[C@H]3CC[C@]12C [Lithocholic acid] | – | – | 2.47 | −0.51 | – | –
13 | CCCCCCCC/C=C\CCCCCCCC(=O)O [Oleic acid] | – | – | 9.3 | −2.45 | – | –
14 | CCCCCCCCCCCCCCCC(=O)O [Palmitic acid] | 19900 | – | – | – | – | –
15 | CCOP(=S)(OCC)Oc1ccc([N+](=O)[O-])cc1 [Parathion] | 0.729 | −0.094 | 0.026 | −1.13 | +28.03 | –
16 | O=C(O)c1ccccc1C(=O)O [Phthalic acid] | – | – | 1170 | −1.71 | – | –
17 | C[C@]12CC[C@H]3[C@@H](CCC4=CC(=O)CC[C@@]43C)[C@@H]1CC[C@@H]2O [Testosterone] | – | – | 90.2 | −0.32 | – | –
18 | Clc1ccccc1CN1CCc2sccc2C1 [Ticlopidine, reference compound] | – | – | – | −0.95 | – | –
19 | Oc1cc(Cl)ccc1Oc1ccc(Cl)cc1Cl [Triclosan] | – | −1.46 | 0.944 | −1.30 | – | –
20 | CC/C=C\C/C=C\C/C=C\CCCCCCCC(=O)O [α-Linolenic acid] | 4.04 | −0.701 | 7.32 | −1.45 | – | –
21 | Nonylphenol | – | −1.02 | – | −1.21 | – | 6.25
